Reference: patent publication US20190031618A1, “BENZIMIDAZOLE DERIVATIVES USEFUL AS CB-1 INVERSE AGONISTS” (Janssen Pharmaceutica NV, priority 2015, published 2019)
Several values for one entry are separate records, joined by “and”; a condition that tells them apart may be missing. Identical values can stand only once.

Assay: in vivo
Details: mouse, 30 mg/kg

concentration at 2 h: 7660 ng/mL and 208 ng/g
Compound: O=S(=O)(N1CCC(n2c(C3CC3)nc3ccc(C(c4ccc(Cl)cc4)c4ccc(Cl)cc4)cc32)CC1)C(F)(F)F [Example 335]
